According to US10501435B2, “Substituted quinazoline compounds and uses thereof for modulating glucocerebrosidase activity” (Northwestern University, priority 2015, dated 2019):
“Also recorded” adds a separate entry of the source.

Assays:
[1] = biological target: acid α-glucosidase (GAA) (Homo sapiens (Human), UniProt P10253); experiment: Enzyme selectivity assay, acid α-glucosidase; type: biochemical; settings: compound treatments up to 100 μM, pH 4.8
Description: (§1) 4-Methylumbelliferyl β-D-glucopyranoside (4MU-β-Glc), 4-methylumbelliferyl α-D-glucopyranoside, 4-methylumbelliferyl α-D-galactopyranoside, and buffer components were purchased from Sigma-Aldrich (St. Louis, Mo.). The recombinant wild-type GCase enzyme velaglucerase alfa (Vpriv®, Shire Human Genetic Therapies, Inc.), acid α-glucosidase enzyme alglucosidase alfa (Lumizyme®, Genzyme Corporation), α-galactosidase A enzyme agalsidase beta (Fabrazyme®, Genzyme Corporation) were used in activity assays. The GCase activity assay buffer was composed of 50 mM citric acid, 176 mM K2HPO4, and 0.01% Tween-20 at pH5.0, pH 5.9 and pH7.0. A solution of 1 M sodium hydroxide and 1 M glycine (pH 10) was used as the stop solution for all three enzyme activity assays.
(§2) Enzyme Selectivity Assays. The acid α-glucosidase and α-galactosidase A enzyme activity assay methods were similar to the GCase enzyme activity assay above with slight modifications. The buffer for the two enzyme assays consisted of 50 mM citric acid, 176 mM K2HPO4, and 0.01% Tween-20 at pH 4.8. The final enzyme concentrations for acid α-glucosidase and α-galactosidase A were 8 and 1 nM, respectively. The substrate concentrations for these related enzymes were at 0.16 and 0.4 mM, respectively.

[2] = biological target: T1, wild-type GCase (Homo sapiens (Human), UniProt P04062); experiment: Fluorescent thermal shift assay; type: binding; settings: pH 5.0, 0.5 to 200 μM
Description: Compounds shown to act as pharmacological chaperones for GCase (or other lysosomal enzymes) also stabilize the enzyme against thermal denaturation. A fluorescent thermal shift assay was developed to evaluate the binding affinity of ligands with protein^30. […] The maximum thermal shift of these compounds corresponded to their inhibitory activity at pH 5.0.
Fluorescence Thermal Shift Analysis^31. A robotic pipeline in the High Throughput Analysis Laboratory (HTAL) was used for protein ligand screening by fluorescence thermal shift (FTS) analysis. The pipeline used a Mosquito robot (TTP Labtech) for protein dispensing and an Echo 550 (Labcyte) to add compounds. Thermal scanning coupled with fluorescence detection was performed on a real-time PCR machine CFX384 (Bio-Rad Laboratories). The assay was run in 384-well PCR plates, using 10 μL citric acid/K2HPO4 buffer (50 mM citric acid, 150 mM K2HPO4, pH 5.0) per well. The assay concentration for protein was 1 μM and that for Sypro Orange (Invitrogen) was 5×. Protein was premixed with Sypro Orange and dispensed to a plate first, and compounds were added. Final concentrations of compounds ranged from 0.5 to 200 μM. Then the plate was sealed with an optical seal, shaken, and centrifuged. The thermal scan was from 10 to 95° C. with a temperature ramp rate of 1.5° C./min. The fluorescence was recorded every 10 sec. Data analysis and report generation were performed using the in-house software excelFTS.

[3] = biological target: α-galactosidase A (GLA) (Homo sapiens (Human), UniProt P06280); experiment: Enzyme selectivity assay, α-galactosidase A; type: biochemical; settings: compound treatments up to 100 μM, pH 4.8
Description: as §1, §2

[4] = biological target: T1, wild-type GCase; experiment: GCase enzyme activity assay (4MU-β-Glc substrate, no taurocholate); type: biochemical; settings: for change of inhibitory activity at pH 5.0 and pH 7.0 compared to pH 5.9: both pH conditions
Description: In previous studies, high concentrations of taurocholate (4-10 mM) were used to improve the signal in GCase enzyme activity assays^16,27,28. […] Here we describe our modifications of the substituents on the quinazoline ring.
as §1, with “The GCase activity assay buffer was composed of 50 mM citric acid, 176 mM K2HPO4, and 0.01% Tween-20 at pH5.0, pH 5.9 and pH7.0.” left out
GCase Enzyme Activity Assay. The compounds in DMSO solution (0.5 μL/well) were transferred to a black 96-well plate (the final titration started from 100 μM, a 12 or 24-point 2-fold dilution series). […] After 5 min of incubation at room temperature, the enzyme reaction was initiated by the addition of blue substrate (4MU-β-Glc) (33 μL/well). The final concentration of the blue substrate was 1.5 mM. The blue substrate reaction was terminated by the addition of 33 μL/well stop solution (1 M NaOH and 1 M glycine mixture, pH 10) after 30 min of incubation at 37° C. […] The selected compounds were further assayed under pH 5.0 and pH 7.0 to evaluate their selectivity under various pH conditions.

[5] = biological target: T2, N370S mutant GCase (Homo sapiens (Human), UniProt P04062, N370S); experiment: GCase protein levels by Western blot in patient N370S fibroblasts; type: cell-based; settings: 3-day treatment, 0.2 μM and 2 μM
Description: (§3) N370S Cell Culture and Compound Treatment. The N370S fibroblast cell line was obtained from Coriell, GM00372, cultured in DMEM medium (Life Tech) including 1% v/v L-glutamine 200 mM (Life Tech), 1% v/v pen strep (Life Tech), 10% FBS (Life Tech) at 37° C. and 5% CO2 and treated with different compounds at 0.2 μM and 2 μM. After a 3-day treatment, cells were washed with inhibitor free media 3 times and fed with inhibitor free media for 1 day, followed by 1% Triton X-100 lysis buffer to lyse cells. Protein concentrations were measured with a Bradford kit (Thermo), and the GCase activity was determined at pH 5.5.
Western Blot. Proteins were denatured in 20% SDS sample buffer at 100° C. for 10 min; 10% Bis-Tris gel (Life Tech) was used for gels; Trans-Blot Turbo PVDF kit (Bio-Rad) was used for membrane transfer, and Chemidoc MP system (Bio-Rad) was used to analyze the blots.

[6] = biological target: T2, N370S mutant GCase; experiment: GCase activity assay in patient N370S fibroblasts; type: cell-based; settings: 3-day treatment, activity determined at pH 5.5
Description: as §3

[7] = biological target: GCase (Homo sapiens (Human), UniProt P04062); experiment: Enzyme kinetic assay (Lineweaver-Burk, resorufin β-D-glucopyranoside); type: biochemical; settings: substrate 30-150 μM, increasing inhibitor concentrations
Description: We further tested compounds 4 and 11g by measuring GCase activity at various substrate concentrations (30-150 μM) and in the absence or presence of increasing concentrations of GCase inhibitors.
Enzyme Kinetic Assay. The substrate resorufin β-D-glucopyranoside was diluted to five concentrations, ranging from 30 to 150 μM. Seven concentrations of inhibitors (between 0.5- and 5-fold of IC50 value) and a DMSO control were added to the enzyme solution. The final enzyme concentration was 10 nM to give a linear reaction over 10 min. Enzyme kinetics were measured by the addition of 66 μL of substrate to a 96-well assay plate, followed by 33 μL of enzyme solution (with or without inhibitor) using a dispense module on a Biotek Synergy H1 multi-mode plate reader. The increase in product fluorescence was measured at 1 min intervals for 10 min in the plate reader. The rate of product formation was calculated by converting the fluorescence units to nanomoles of product per minute using a standard curve of the free fluorophore, resorufin.

T2 sequence (P04062 40-536 N409S): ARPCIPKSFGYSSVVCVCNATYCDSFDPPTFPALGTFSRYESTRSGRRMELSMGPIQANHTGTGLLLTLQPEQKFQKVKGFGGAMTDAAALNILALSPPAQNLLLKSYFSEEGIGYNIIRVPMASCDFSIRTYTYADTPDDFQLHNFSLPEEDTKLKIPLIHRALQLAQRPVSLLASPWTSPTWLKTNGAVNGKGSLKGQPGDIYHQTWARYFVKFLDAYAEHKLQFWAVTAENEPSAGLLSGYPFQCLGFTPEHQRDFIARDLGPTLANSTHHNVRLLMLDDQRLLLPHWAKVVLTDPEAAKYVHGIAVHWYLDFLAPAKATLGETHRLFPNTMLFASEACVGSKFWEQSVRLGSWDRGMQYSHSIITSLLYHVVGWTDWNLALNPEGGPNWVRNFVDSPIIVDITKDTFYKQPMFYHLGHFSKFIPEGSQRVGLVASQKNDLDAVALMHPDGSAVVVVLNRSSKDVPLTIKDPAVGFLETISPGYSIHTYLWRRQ
T1 sequence (P04062 40-536): as the sequence (P04062 40-536 N409S) above, with S370N counted along it
Chain of α-galactosidase A (GLA) (P06280 32-429): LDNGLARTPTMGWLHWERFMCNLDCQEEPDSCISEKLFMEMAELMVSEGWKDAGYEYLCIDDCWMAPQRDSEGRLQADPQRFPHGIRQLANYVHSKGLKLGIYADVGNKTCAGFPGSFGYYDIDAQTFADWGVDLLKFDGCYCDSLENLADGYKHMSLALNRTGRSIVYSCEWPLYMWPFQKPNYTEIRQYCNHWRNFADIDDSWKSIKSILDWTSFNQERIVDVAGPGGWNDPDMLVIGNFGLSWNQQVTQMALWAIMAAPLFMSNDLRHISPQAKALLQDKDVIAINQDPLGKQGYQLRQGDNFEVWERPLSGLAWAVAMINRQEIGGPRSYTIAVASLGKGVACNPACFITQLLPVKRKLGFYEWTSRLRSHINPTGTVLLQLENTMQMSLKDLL
Chain of GCase (P04062 40-536): as the sequence (P04062 40-536 N409S) above, with S370N counted along it

| SMILES | acid α-glucosidase (GAA) activity [1] | α-galactosidase A (GLA) activity [3] | inhibitory activity against GCase (in words) [4] | decrease of inhibitory activity at pH 5.0 compared to pH 5.9 ([4]; pH 5.0 vs pH 5.9) [fold] | concentration of GCase (protein level, Western blot) [5] | change of inhibitory activity at pH 5.0 and pH 7.0 compared to pH 5.9 [4] | GCase activity in patient cells [6] | type of inhibition (Km, Vmax) [7] | stabilization of wild-type GCase / change of GCase melting point [2] |
| --- | --- | --- | --- | --- | --- | --- | --- | --- | --- |
| c1cncc(-c2nc(NC3CCc4ccccc4C3)c3ccccc3n2)c1 (single isomer, unassigned) [Compound 9a] | not significantly changed | not significantly changed | – | – | – | – | – | – | stabilize wild-type GCase in a dose-dependent manner; also recorded: increased the GCase melting point in a dose-dependent manner |
| c1ccc(Nc2nc(-c3cccnc3)nc3ccccc23)cc1 [Compound 8a] | – | – | lost activity | – | – | – | – | – | did not change the melting points significantly |
| c1cncc(-c2nc(N[C@@H]3CCc4ccccc4C3)c3ccccc3n2)c1 [Compound 9b] | – | – | – | 3 | – | – | – | – | stabilize wild-type GCase in a dose-dependent manner; also recorded: increased the GCase melting point in a dose-dependent manner |

Now from value to molecule, other results behind:

| acid α-glucosidase (GAA) activity [1] | α-galactosidase A (GLA) activity [3] | inhibitory activity against GCase (in words) [4] | decrease of inhibitory activity at pH 5.0 compared to pH 5.9 ([4]; pH 5.0 vs pH 5.9) [fold] | concentration of GCase (protein level, Western blot) [5] | change of inhibitory activity at pH 5.0 and pH 7.0 compared to pH 5.9 [4] | GCase activity in patient cells [6] | type of inhibition (Km, Vmax) [7] | SMILES | stabilization of wild-type GCase / change of GCase melting point [2] |
| --- | --- | --- | --- | --- | --- | --- | --- | --- | --- |
| not significantly changed | not significantly changed | – | – | significantly increased | – | – | – | c1ccc(-c2nc(NC3Cc4ccccc4C3)c3ccccc3n2)cc1 [Compound 11d, N-(2,3-dihydro-1H-inden-2-yl)-2-phenylquinazolin-4-amine] | stabilize wild-type GCase in a dose-dependent manner; also recorded: increased the GCase melting point in a dose-dependent manner |
| not significantly changed | not significantly changed | – | – | significantly increased | only dropped slightly | – | – | c1csc(-c2nc(NC3Cc4ccccc4C3)c3ccccc3n2)c1 [Compound 11f, N-(2,3-dihydro-1H-inden-2-yl)-2-(thiophen-2-yl)quinazolin-4-amine] | stabilize wild-type GCase in a dose-dependent manner; also recorded: increased the GCase melting point in a dose-dependent manner |
| not significantly changed | not significantly changed | – | – | significantly increased | only dropped slightly | increased GCase activity | linear mixed inhibition | c1ccc2c(c1)CC(Nc1nc(-c3ccsc3)nc3ccccc13)C2 [Compound 11g, N-(2,3-dihydro-1H-inden-2-yl)-2-(thiophen-3-yl)quinazolin-4-amine] | stabilize wild-type GCase in a dose-dependent manner; also recorded: increased the GCase melting point in a dose-dependent manner |
| – | – | – | – | did not have an effect | – | had no effect | – | OC[C@H]1CNC[C@@H](O)[C@@H]1O [IFG, Isofagomine, reference compound] | stabilize wild-type GCase in a dose-dependent manner |
